# Data as given in patent US9987296B2, “Compositions including anthocyanin or anthocyanidin for the prevention or treatment of Articular cartilage-associated conditions” (priority 2008, dated 2018).
# “Also recorded” adds a separate entry of the source.
# How the values were obtained:
# [1] = system: IGF-1; experiment: IGF-1 production by ELISA, cultured human chondrocytes; format: cell-based; conditions: for IGF-1 production: cultured chondrocytes treated with compound, presence and absence of IL-1; for IGF-1 production compared to IL-1 alone: human chondrocytes in culture, 5 or 50 ug/mL (FIGS. 5, 6)
# Experimental: Chondrocytes were prepared by the enzymatic digestion of knee cartilage, as previously described. (Ahmed S et al., J Nutr 2005 135:20962102). Chondrocytes were plated (1×10^6 cells/mL) in 35 mm culture dishes (BD, Mountain View, Calif.) and cultured in DMEM:F12 (Mediatech, Herndon, Va.) supplemented with 10% FCS and 1% Penn:Strep for 72 hrs at 37° C. and 5% CO2 in a tissue culture incubator. Chondrocytes were serum starved overnight and then exposed to either kuromanin or cyanidin chloride (5 or 50 ug/mL), progrado (2 or 10 ug/mL) alone or in combination in fresh serum-free medium for 1 hr prior to the addition of IL-β.
# Human IGF-1 label in chondrocytes culture or cartilage explant media was quantified using a commercially available Human IGF-1 ELISA kit (R& D Systems) per manufacturer's directions.
# [2] = cited from earlier work
# [3] = system: rodent pancreatic beta-cells; conditions: in culture, with 4 and 10 mM glucose; cited from earlier work
# [4] = system: bovine cartilage explants; experiment: Matrix synthesis (35S uptake) in bovine cartilage explants; format: cell-based
# Experimental: Bovine cartilage explants (full thickness, 6 mm in diameter) were harvested from fresh femoral condyles. Human osteochondral plugs were harvested using 6 mm osteochondral grafting donor tool (Arthrez 1981-06S, Naples, Fla.) from femoral condyles retrieved from total knee arthroplasty surgery that had been stored in DMEM at 20 degrees C. for less than 24 hours. Full-thickness cartilage explants were cut from the subchondral bone. Each of the 6 mm cartilage disks were divided into 4 equal quadrants. Each quadrant was placed in a different experimental group. This allowed for a paired comparison and controlled for differences in grade of arthritis, thickness of cartilage, cell density, etc. The explants were washed 4-5 times with DMEM with 10% calf serum and were allowed to stabilize for 24 hours in a tissue culture incubator. Explants were then serum starved (0.1% calf serum) for 24 hours prior to commencement of cyanidin chloride treatment.
# 3 mL fresh media with 20 uCi/mL of ^35S-labeled sodium sulfate (NEX0414 Perkin Elmer, Boston, Mass.) (DMEM with 10% CS) was added to each of the explants along with 30 uL of 50 mM stock cyanidin chloride (MW 322.7 g/mole) solution (diluted in DMSO) (Chromadex Inc., Irvine, Calif.) to give the final cyanidin chloride concentration of (200 or 500 uM) in culture. Explants were subjected to cyanidin chloride treatment for 48 hours.
# Radioactive media was aspirated after 48 hours and explants were washed in ice-cold 1×PBS for 10 minutes×3. Each cartilage explant quadrant was blotted dry and was placed in 500 uL of 2 mg/mL Proteinase K (Fisher Scientific, Fair Lawn, N.J.) in TE Buffer solution (10 mM Tris, 1 mM EDTA) and was allowed to rotate at 57 degrees C. for 24 hours in a hybridization oven until completely dissolved. Quantification of ^35S-labeled proteoglycans complexed to alcian blue by rapid filtration in multiwall plates was adopted and modified from Masuda et al Anal. Biochem 1994; 217:167-75. 75 uL of dilution buffer (50 mM Sodium Acetate pH^− 5.8. 0.5% Triton X-100) was added to each well of a 96 well plate (Millipore Multiscreen 96-well filtration system, Millipore, Billerica, Mass.) 25 uL of each digested cartilage explant sample was then loaded followed by 150 uL of 0.2% alcian blue solution (Alcian Blue 8GX electrophoresis grade, Sigma-Aldrich Inc., St. Louis Mo.) and was allowed to rotate for 1 hour at room temperature. The 96-well plate was then placed over a vacuum-manifold to aspirate the contents of the wells through the screen. The 3×200 uL vacuum washes with wash buffer (50 mM sodium acetate pI-I 5.8, 100 mM sodium sulfate, 50 mM MgCl2) were then performed. The 96-well filtration plate was then completely dried at 57 degrees C. for 5 minutes in a hybridization oven and was exposed to storage phosphor screen for 24 hours (Packard Instrument Company Inc., Meriden. Conn.). Phosphorimaging with Cyclone model A431200 (Packard Instrument Company Inc. Meriden, Conn.) was performed to quantify ^35S uptake by proteoglycans. ^35S uptake by proteoglycans in cartilage explants was normalized to DNA by Quant-iT ds DNA Assay Kit (Invitrogen Inc., Carlsbad Calif.).
# The effect of cyanidin on bovine cartilage explants was tested. The dose response was also determined. Cartilage explants were treated with 1L-1 (50 ng/mL) for 24 hours. IL-1 reduces matrix synthesis and induces an inflammatory respond similar to osteoarthritis. Explants were then treated with cyanidin chloride at either 200 or 500 uM concentration for 24 hours. Matrix synthesis was monitored by measuring uptake of ^35S.
# Bovine explants were initially subjected to IL-1 treatment for 24 hours. Explants were then treated with 500 uM cyanidin chloride in a low glucose (1 g/L) or high glucose concentration (4.5 g/L). […] The higher the glucose concentration increased matrix synthesis by 10%. The cyanidin treatment had small effect under low glucose conditions, but the effect was nearly 20% greater in the high glucose condition.
# [5] = system: fibroblast cells; experiment: Fibroblast cell proliferation; format: cell-based; conditions: for cell proliferation: fibroblasts
# Experimental: For completeness, the relationship between a saccharide (dextrose) and TGF-β was also examined. Fibroblasts were treated with varying amounts of dextrose and measured for the release of TGF-β. […] It appeared that 0.5% glucose provided the greatest proliferation of fibroblasts.
# [6] = system: bovine cartilage explants; experiment: Matrix synthesis (35S uptake) in bovine cartilage explants; format: cell-based; remark: listed apart in the source
# [7] = system: Human articular chondrocytes; experiment: Cell viability (calcein AM / ethidium homodimer staining); format: cell-based; conditions: 96 hours
# Source text: Chondrocytes were isolated from non-arthritic regions of adult human articular cartilage (N=3 donors) and expanded in tissue culture flasks in DMEM supplemented with 10% calf serum.
# At higher concentrations, the color of the anthocyanin interfered with the spectrophotometer reading; therefore, cell viability was additionally measured with calcein staining as follows: Live and dead cells were simultaneously viewed in situ with a confocal microscope (LSM 510; Zeiss, Wetzlar, Germany), using a fluorescent double stain. Calcein AM (1 uM; Invitrogen, Carlsbad, Calif.), a fluorescein derivative that is metabolized by nonspecific esterase present in viable cells, was used to stain live cells. The use of 8 uM ethidium homodimer (Invitrogen), a nucleic acid stain that is excluded by intact cell membranes, enabled visualization of the nuclei of dead cells. After 96-hour exposure to the appropriate concentration of anthocyanins, chondrocytes were cultured in DMEM supplemented with Calcein AM and ethidium homodimer for 45 minutes. Live and dead cells were counted using an automated image analysis script written in Matlab (MathWorks, Natick, Mass.) to measure percentage cell viability.
structure (smiles),measurement,setting,value
OC[C@H]1O[C@@H](Oc2cc3c(O)cc(O)cc3[o+]c2-c2ccc(O)c(O)c2)[C@H](O)[C@@H](O)[C@@H]1O.[Cl-] [Kuromanin chloride],IGF-1 production (media levels),[1]; IL-1 with high dose 50 ug/mL,no effect over IL-1
same,IGF-1 production (media levels),[1]; IL-1 with low dose 5 ug/mL,restoration of IGF-1 production
same,IGF-1 production,[1],Reduced production of IGF-1
same,IGF-1 production (media levels),[1]; high dose (50 ug/mL) alone,reduced IGF-1 protein levels in the media to a similar level as to that seen with IL-1
same,IGF-1 production compared to IL-1 alone,[1],greater than IL-1 alone when treated with kuromanin at high levels and at low levels in combination with 1L-1
same,half-life,[2],1.5 to 2 h
same,insulin secretion,[3],stimulate insulin secretion
O=C[C@H](O)[C@@H](O)[C@H](O)[C@H](O)CO [glucose],increase of matrix synthesis,"[4]; higher glucose concentration (4.5 g/L vs 1 g/L), after IL-1",10%
same,concentration providing the greatest proliferation of fibroblasts,[5],0.5%
same,cell proliferation,[5]; higher concentrations of glucose,did not
same,cell proliferation,[5]; lower concentrations of glucose,increased cell proliferation
Oc1cc(O)c2cc(O)c(-c3ccc(O)c(O)c3)[o+]c2c1 [Cyanidin chloride],"chondroprotective activity, greater than under low glucose",[6]; higher glucose conditions (5%) as printed,~20%
same,chondroprotective activity,[6]; low glucose levels (2.5%) as printed,some chondroprotective activity
same,"effect on matrix synthesis, greater in high glucose than in low glucose","[4]; 500 uM, high glucose (4.5 g/L), after IL-1",~20%
same,effect on matrix synthesis,"[4]; 500 uM, low glucose (1 g/L), after IL-1",small effect
same,matrix synthesis (35S uptake),"[4]; IL-1 50 ng/mL 24 hours, then 200 or 500 uM for 24 hours, listed as Cyanidin",inconsistent effect
same,matrix synthesis (35S uptake),"[4]; IL-1 50 ng/mL 24 hours, then 200 or 500 uM for 24 hours, listed as cyanidin",Initially a dose response was identified but difficult to reproduce
same,matrix synthesis (35S uptake),"[4]; IL-1 50 ng/mL 24 hours, then 200 or 500 uM for 24 hours, listed as cyanidin chloride",we could not reproduce this effect in several subsequent experiments
same,matrix synthesis (35S uptake),"[4]; after IL-1, 500 uM combined with high glucose (4.5 g/L)",significantly induce chondroreparative activity; also recorded: increased matrix synthesis the most
same,IGF-1 production (media levels),[1]; IL-1 with high dose 50 ug/mL,no restoration of media IFG-1 levels
same,IGF-1 production (media levels),[1]; IL-1 with low dose 5 ug/mL,no restoration of media IFG-1 levels
same,IGF-1 production,[1],Reduced production of IGF-1
same,IGF-1 production (media levels),[1]; high dose (50 ug/mL) alone,reduced IGF-1 production from control values
same,IGF-1 production compared to IL-1 alone,[1],greater than IL-1 alone when treated with cyanidin alone at high levels and at low levels in combination with IL-1
same,cell viability,[7]; 500 uM,completely reducing cell viability
same,toxicity relative to the other compounds tested,[7]; concentrations above 100 uM up to 500 uM,most toxic
